Columns and labels:
[1] = target: recombinant HCV NS3 protease, genotype 1b (Hepatitis C virus genotype 1b, UniProt Q9WMX2); assay: biochemical; conditions: genotype 1b NS3 protease; read-out: IC50 in a 1b enzyme assay
[2] = target: recombinant HCV NS3 protease, genotype 1a (Hepatitis C virus genotype 1a, UniProt P27958); assay: biochemical; conditions: genotype 1a NS3 protease; read-out: IC50 in a 1a enzyme assay
[3] = test system: HCV genotype 1a replicon (1a-H77); assay: microbe, parasite or virus in culture; assay type: cell-based; conditions: Hepatitis C virus, read-out: EC50 in a replicon cell line assay in a 1a-H77 background
HLM stability = assay type: in vitro ADME
[4] = test system: HCV genotype 1b replicon (1b-Con-1); assay: microbe, parasite or virus in culture; assay type: cell-based; conditions: Hepatitis C virus, read-out: EC50 in a replicon cell line assay in a 1b-con1 background

Chain of recombinant HCV NS3 protease, genotype 1b (Q9WMX2 1027-1657, other chains not shown): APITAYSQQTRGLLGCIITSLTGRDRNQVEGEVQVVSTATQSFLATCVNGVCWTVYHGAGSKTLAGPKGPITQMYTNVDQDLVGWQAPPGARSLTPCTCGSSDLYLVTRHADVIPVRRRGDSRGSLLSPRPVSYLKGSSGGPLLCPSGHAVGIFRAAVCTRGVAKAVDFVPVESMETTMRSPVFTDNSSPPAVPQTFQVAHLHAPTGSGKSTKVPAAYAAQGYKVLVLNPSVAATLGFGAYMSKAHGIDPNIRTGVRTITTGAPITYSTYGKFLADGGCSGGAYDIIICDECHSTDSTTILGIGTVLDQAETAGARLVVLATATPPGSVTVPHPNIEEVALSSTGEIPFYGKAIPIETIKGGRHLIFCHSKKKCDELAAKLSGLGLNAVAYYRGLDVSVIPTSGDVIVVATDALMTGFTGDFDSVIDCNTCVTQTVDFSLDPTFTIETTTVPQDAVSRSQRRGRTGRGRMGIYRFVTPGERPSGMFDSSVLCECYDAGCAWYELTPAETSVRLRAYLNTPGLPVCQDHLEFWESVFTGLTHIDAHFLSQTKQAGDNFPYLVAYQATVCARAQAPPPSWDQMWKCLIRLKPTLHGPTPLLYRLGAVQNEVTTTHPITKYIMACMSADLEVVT
Chain of recombinant HCV NS3 protease, genotype 1a (P27958 1027-1657, other chains not shown): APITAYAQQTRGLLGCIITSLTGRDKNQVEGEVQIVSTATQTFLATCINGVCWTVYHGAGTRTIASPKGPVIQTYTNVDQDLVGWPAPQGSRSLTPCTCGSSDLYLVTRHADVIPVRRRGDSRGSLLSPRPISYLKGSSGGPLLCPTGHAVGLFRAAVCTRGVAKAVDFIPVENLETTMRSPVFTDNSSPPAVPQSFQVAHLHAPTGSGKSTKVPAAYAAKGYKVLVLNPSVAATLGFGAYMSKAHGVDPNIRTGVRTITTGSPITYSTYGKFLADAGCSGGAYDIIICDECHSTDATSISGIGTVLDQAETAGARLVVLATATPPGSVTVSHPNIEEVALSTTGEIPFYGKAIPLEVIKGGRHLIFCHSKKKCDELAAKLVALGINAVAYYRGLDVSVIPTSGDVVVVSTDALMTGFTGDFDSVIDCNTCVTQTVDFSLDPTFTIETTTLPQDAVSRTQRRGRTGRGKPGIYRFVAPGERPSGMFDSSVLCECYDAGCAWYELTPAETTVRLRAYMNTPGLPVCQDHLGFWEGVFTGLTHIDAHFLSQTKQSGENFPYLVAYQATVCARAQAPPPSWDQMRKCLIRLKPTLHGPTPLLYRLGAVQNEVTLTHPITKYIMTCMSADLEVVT

SMILES | IC50 [1] [nM] | IC50 [2] [nM] | HLM stability value (HLM stability) [µL/min/mg] | EC50 [3] [nM] | EC50 [4] [nM]
CCc1nc2ccccc2nc1O[C@@H]1C[C@H]2C(=O)N[C@]3(C(=O)NS(=O)(=O)C4CC4)C[C@H]3CC(F)(F)CCCCC[C@H](NC(=O)OC(C)(C)C)C(=O)N2C1 [Example 7, tert-butyl (2R,6S,13aS,14aR,16aS)-14a-(cyclopropylsulfonylcarbamoyl)-2-(3-ethylquinoxalin-2-yloxy)-12,12-difluoro-5,16-dioxooctadecahydrocyclopropa[e]pyrrolo [1,2-a][1,4]diazacyclopentadecin-6-ylcarbamate] | 0.1 to 0.5 | 0.5 to 1 | > 100 | 2 to 5 | 1 to 2
Cc1cc(C(=O)N[C@H]2CCCCCC(F)(F)C[C@@H]3C[C@@]3(C(=O)NS(=O)(=O)C3CC3)NC(=O)[C@@H]3C[C@@H](Oc4nc5ccccc5nc4C)CN3C2=O)no1 [Example 4, N-((2R,6S,13aS,14aR,16aS)-14a-(cyclopropylsulfonylcarbamoyl)-12,12-difluoro-2-(3-methylquinoxalin-2-yloxy)-5,16-dioxooctadecahydrocyclopropa[e]pyrrolo[1,2-a][1,4]diazacyclopentadecin-6-yl)-5-methylisoxazole-3-carboxamide] |  |  | < 50 |  | 
CCc1nc2ccccc2nc1O[C@@H]1C[C@H]2C(=O)N[C@]3(C(=O)NS(=O)(=O)C4CC4)C[C@H]3CC(F)(F)CCCCC[C@H](NC(=O)c3cc(C)on3)C(=O)N2C1 [Example 9, N-((2R,6S ,13aS,14aR,16aS)-14a-(cyclopropylsulfonylcarbamoyl)-2-(3-ethylquinoxalin-2-yloxy)-12,12-difluoro-5,16-dioxooctadecahydrocyclopropa[e]pyrrolo[1,2-a][1,4]diazacyclopentadecin-6-yl)-5-methylisoxazole-3-carboxamide] | 0.1 to 0.5 | 0.5 to 1 | < 50 | 2 to 5 | 1 to 2
Cc1cnc(C(=O)N[C@H]2CCCCCC(F)(F)C[C@@H]3C[C@@]3(C(=O)NS(=O)(=O)C3CC3)NC(=O)[C@@H]3C[C@@H](Oc4nc5ccccc5c5ccccc45)CN3C2=O)cn1 [Example 20, (2R,6S,13aS,14aR,16aS)-N-(cyclopropylsulfonyl)-12,12-difluoro-6-(5-methylpyrazine-2-carboxamido)-5,16-dioxo-2-(phenanthridin-6-yloxy)octadecahydrocyclopropa[e]pyrrolo[1,2-a][1,4]diazacyclopentadecine-14a-carboxamide] |  |  | < 50 |  | 
CCc1nc2ccccc2nc1O[C@@H]1C[C@H]2C(=O)N[C@]3(C(=O)NS(=O)(=O)C4CC4)C[C@H]3CC(F)(F)CCCCC[C@H](NC(=O)c3ccon3)C(=O)N2C1 [Example 11, N-((2R,6S ,13aS,14aR,16aS)-14a-(cyclopropylsulfonylcarbamoyl)-2-(3-ethylquinoxalin-2-yloxy)-12,12-difluoro-5,16-dioxooctadecahydrocyclopropa[e]pyrrolo[1,2-a][1,4]diazacyclopentadecin-6-yl)isoxazole-3-carboxamide] | 0.1 to 0.5 | 0.1 to 0.5 | < 50 | > 5 | 2 to 5
CC(C)(C)OC(=O)N[C@H]1CCCCCC(F)(F)C[C@@H]2C[C@@]2(C(=O)NS(=O)(=O)C2CC2)NC(=O)[C@@H]2C[C@@H](Oc3nc4ccccc4c4ccccc34)CN2C1=O [Example 19, tert-butyl (2R,6S,13aS,14aR,16aS)-14a-(cyclopropylsulfonylcarbamoyl)-12,12-difluoro-5,16-dioxo-2-(phenanthridin-6-yloxy)octadecahydrocyclopropa[e]pyrrolo[1,2-a][1,4]diazacyclopentadecin-6-ylcarbamate] | < 0.1 | < 0.1 | > 100 | < 1 | < 1
CCc1nc2ccccc2nc1O[C@@H]1C[C@H]2C(=O)N[C@]3(C(=O)NS(=O)(=O)C4(C)CC4)C[C@H]3CC(F)(F)CCCCC[C@H](NC(=O)c3cc(C)on3)C(=O)N2C1 [Example 10, N-((2R,6S,13aS,14aR,16aS)-2-(3-ethylquinoxalin-2-yloxy)-12,12-difluoro-14a-(1-methylcyclopropylsulfonylcarbamoyl)-5,16-dioxooctadecahydrocyclopropa[e]pyrrolo [1,2-a][1,4]diazacyclopentadecin-6-yl)-5-methylisoxazole-3-carboxamide] |  |  | < 50 | 2 to 5 | 1 to 2
Cc1cc(C(=O)N[C@H]2CCCCCC(F)(F)C[C@@H]3C[C@@]3(C(=O)NS(=O)(=O)C3CC3)NC(=O)[C@@H]3C[C@@H](Oc4cnc5ccccc5n4)CN3C2=O)no1 [Example 2, N-((2R,6S,13aS,14aR,16aS)-14a-(cyclopropylsulfonylcarbamoyl)-12,12-difluoro-5,16-dioxo-2-(quinoxalin-2-yloxy)octadecahydrocyclopropa[e]pyrrolo[1,2-a][1,4]diazacyclopentadecin-6-yl)-5-methylisoxazole-3-carboxamide] |  |  | < 50 |  | 
Cc1cc(C(=O)N[C@H]2CCCCCC(F)(F)C[C@@H]3C[C@@]3(C(=O)NS(=O)(=O)C3CC3)NC(=O)[C@@H]3C[C@@H](Oc4nc5ccccc5c5ccccc45)CN3C2=O)no1 [Example 18, N-((2R,6S,13aS,14aR,16aS)-14a-(cyclopropylsulfonylcarbamoyl)-12,12-difluoro-5,16-dioxo-2-(phenanthridin-6-yloxy)octadecahydrocyclopropa[e]pyrrolo[1,2-a][1,4]diazacyclopentadecin-6-yl)-5-methylisoxazole-3-carboxamide] |  |  |  | < 1 | < 1

Continued, in another order:

IC50 [1] [nM] | IC50 [2] [nM] | HLM stability value (HLM stability) [µL/min/mg] | SMILES | EC50 [3] [nM] | EC50 [4] [nM]
0.5 to 1 | 0.5 to 1 |  | CC(C)(C)OC(=O)N[C@H]1CCCCCC(F)(F)C[C@@H]2C[C@@]2(C(=O)NS(=O)(=O)C2CC2)NC(=O)[C@@H]2C[C@@H](Oc3nc4ccccc4nc3-c3ccccc3)CN2C1=O [Example 5, tert-butyl (2R,6S ,13aS,14aR,16aS)-14a-(cyclopropylsulfonylcarbamoyl)-12,12-difluoro-5,16-dioxo-2-(3-phenylquinoxalin-2-yloxy)octadecahydrocyclopropa[e]pyrrolo[1,2-a][1,4]diazacyclopentadecin-6-ylcarbamate] |  | 
< 0.1 | 0.1 to 0.5 | < 50 | Cn1ccc(C(=O)N[C@H]2CCCCCC(F)(F)C[C@@H]3C[C@@]3(C(=O)NS(=O)(=O)C3CC3)NC(=O)[C@@H]3C[C@@H](Oc4nc5ccccc5nc4-c4cc5ccccc5o4)CN3C2=O)n1 [Example 17, (2R,6S,13aS,14aR,16aS)-2-(3-(benzofuran-2-yl)quinoxaline-2-yloxy)-N-(cyclopropylsulfonyl)-12,12-difluoro-6-(1-methyl-1H-pyrazole-3-carboxamido)-5,16-dioxooctadecahydrocyclopropa[e]pyrrolo [1,2-a][1,4]diazacyclopentadecine-14a-carboxamide] |  | 
 |  | < 50 | Cc1cc(C(=O)N[C@H]2CCCCCC(F)(F)C[C@@H]3C[C@@]3(C(=O)NS(=O)(=O)C3CC3)NC(=O)[C@@H]3C[C@@H](Oc4nc5ccccc5c5ccccc45)CN3C2=O)nn1C [Example 21, (2R,6S,13aS,14aR,16a5)-N-(cyclopropylsulfonyl)-6-(1,5-dimethyl-1H-pyrazole-3-carboxamido)-12,12-difluoro-5,16-dioxo-2-(phenanthridin-6-yloxy)octadecahydrocyclopropa[e]pyrrolo[1,2-a][1,4]diazacyclopentadecine-14a-carboxamide] |  | 
0.1 to 0.5 | 0.1 to 0.5 |  | Cc1cc(C(=O)N[C@H]2CCCCCC(F)(F)C[C@@H]3C[C@@]3(C(=O)NS(=O)(=O)C3CC3)NC(=O)[C@@H]3C[C@@H](Oc4nc5ccccc5nc4-c4cc5ccccc5o4)CN3C2=O)no1 [Example 16, N-((2R,6S,13aS,14aR,16aS)-2-(3-(benzofuran-2-yl)quinoxaline-2-yloxy)-14a-(cyclopropylsulfonylcarbamoyl)-12,12-difluoro-5,16-dioxooctadecahydrocyclopropa[e]pyrrolo[1,2-a][1,4]diazacyclopentadecin-6-yl)-5-methylisoxazole-3-carboxamide] |  | 
 |  | < 50 | Cc1cc(C(=O)N[C@H]2CCCCCC(F)(F)C[C@@H]3C[C@@]3(C(=O)NS(=O)(=O)C3CC3)NC(=O)[C@@H]3C[C@@H](Oc4nc5ccccc5nc4-c4ccccc4)CN3C2=O)no1 [Example 6, N-((2R,6S,13aS,14aR,16aS)-14a-(cyclopropylsulfonylcarbamoyl)-12,12-difluoro-5,16-dioxo-2-(3-phenylquinoxalin-2-yloxy)octadecahydrocyclopropa[e]pyrrolo[1,2-a][1,4]diazacyclopentadecin-6-yl)-5-methylisoxazole-3-carboxamide] |  | 
0.1 to 0.5 | 0.1 to 0.5 |  | Cc1nc2ccccc2nc1O[C@@H]1C[C@H]2C(=O)N[C@]3(C(=O)NS(=O)(=O)C4CC4)C[C@H]3CC(F)(F)CCCCC[C@H](NC(=O)OC(C)(C)C)C(=O)N2C1 [Example 3, tert-butyl (2R,6S,13aS,14aR,16aS)-14a-(cyclopropylsulfonylcarbamoyl)-12,12-difluoro-2-(3-methylquinoxalin-2-yloxy)-5,16-dioxooctadecahydrocyclopropa[e]pyrrolo[1,2-a][1,4]diazacyclopentadecin-6-ylcarbamate] |  | 
> 1 | > 1 | 50 to 100 | CC(C)(C)OC(=O)N[C@H]1CCCCCC(F)(F)C[C@@H]2C[C@@]2(C(=O)NS(=O)(=O)C2CC2)NC(=O)[C@@H]2C[C@@H](Oc3cnc4ccccc4n3)CN2C1=O [Example 1, tert-butyl(2R,6S,13aS,14aR,16aS)-14a-(cyclopropylsulfonylcarbamoyl)-12,12-difluoro-5,16-dioxo-2-(quinoxalin-2-yloxy)octadecahydrocyclopropa[e]pyrrolo[1,2-a][1,4]diazacyclopentadecin-6-ylcarbamate] |  | 
